Measurements reported in PubChem BioAssay AID330 (DTP/NCI, 2004).
Values joined by “and” are separate entries in the source; they are usually repeats but may differ in a detail not shown here. Identical values can stand only once. Inconclusive results and toxic doses are left out.

System: P388 leukemia ip, CD2F1 mice, survival T/C
Experiment: NCI In Vivo Anticancer Drug Screen. Data for tumor model P388 Leukemia (intraperitoneal) in CD2F1 (CDF1) mice
Conditions: endpoint: median survival time, higher = longer survival
Outline: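 Mice carrying the transplanted tumor received test compound or vehicle. Survival was recorded in each group, and the value is the treated-group measurement divided by that of the vehicle-treated control group.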

For `O=NN(CCCl)C(=O)NCCCl`, the T/C (dose: 1.0 mg/kg/injection, schedule: Q01DX001 (ip), vehicle: Klucel (hydroxypropylcellulose) (HPC)) was 122 % of control, the T/C (dose: 1.0 mg/kg/injection, schedule: Q01DX001 (ip), vehicle: saline with Tween-80) was 115 % of control and the T/C (dose: 1.0 mg/kg/injection, schedule: Q01DX001 (ip), vehicle: suspension in saline) was 107 % of control. For the same molecule, the T/C (dose: 1.0 mg/kg/injection, schedule: Q01DX005 (ip), vehicle: saline + alcohol) was 112 % of control, the T/C (dose: 2.0 mg/kg/injection, schedule: Q01DX001 (ip), vehicle: Klucel (hydroxypropylcellulose) (HPC)) was 112 % of control and the T/C (dose: 2.0 mg/kg/injection, schedule: Q01DX001 (ip), vehicle: saline with Tween-80) was 107 % of control. For the same molecule, the T/C (dose: 2.0 mg/kg/injection, schedule: Q01DX001 (ip), vehicle: suspension in saline) was 117 % of control, the T/C (dose: 2.0 mg/kg/injection, schedule: Q01DX009 (ip), vehicle: other) was 163 % of control and 175 % of control and the T/C (dose: 2.0 mg/kg/injection, schedule: Q01DX009 (ip), vehicle: saline with Tween-80) was 173 % of control. The T/C (dose: 2.5 mg/kg/injection, schedule: Q04DX003 (iv), vehicle: saline + alcohol) was 152 % of control, the T/C (dose: 3.24 mg/kg/injection, schedule: Q04DX003 (ip), vehicle: saline + alcohol) was 208 % of control and the T/C (dose: 3.3 mg/kg/injection, schedule: Q01DX005 (ip), vehicle: Klucel (hydroxypropylcellulose) (HPC)) was 267 % of control. For the same molecule, the T/C (dose: 3.3 mg/kg/injection, schedule: Q01DX005 (ip), vehicle: saline + alcohol) was 250 % of control and 265 % of control, the T/C (dose: 3.3 mg/kg/injection, schedule: Q01DX009 (ip), vehicle: saline + alcohol) was 183 % of control and the T/C (dose: 3.75 mg/kg/injection, schedule: Q04DX003 (ip), vehicle: saline) was 176 % of control. The T/C (dose: 3.89 mg/kg/injection, schedule: Q04DX003 (ip), vehicle: saline + alcohol) was 178 % of control, the T/C (dose: 4.0 mg/kg/injection, schedule: Q01DX001 (ip), vehicle: saline + alcohol) was 123 % of control and the T/C (dose: 4.0 mg/kg/injection, schedule: Q01DX005 (ip), vehicle: saline + alcohol) was 170 % of control. The T/C (dose: 4.0 mg/kg/injection, schedule: Q01DX009 (ip), vehicle: other) was 215 % of control and 287 % of control, the T/C (dose: 4.0 mg/kg/injection, schedule: Q01DX009 (ip), vehicle: saline with Tween-80) was 262 % of control and the T/C (dose: 4.4 mg/kg/injection, schedule: Q01DX005 (ip), vehicle: saline + alcohol) was 222 % of control. The T/C (dose: 5.0 mg/kg/injection, schedule: Q04DX003 (ip), vehicle: saline + alcohol) was 206 % of control, the T/C (dose: 5.0 mg/kg/injection, schedule: Q04DX003 (iv), vehicle: saline + alcohol) was 177 % of control and the T/C (dose: 5.4 mg/kg/injection, schedule: Q04DX003 (ip), vehicle: saline + alcohol) was 185 % of control. The T/C (dose: 6.48 mg/kg/injection, schedule: Q04DX002 (ip), vehicle: saline + alcohol) was 163 % of control and 169 % of control, the T/C (dose: 6.48 mg/kg/injection, schedule: Q04DX003 (ip), vehicle: saline + alcohol) was 219 % of control and the T/C (dose: 6.6 mg/kg/injection, schedule: Q01DX005 (ip), vehicle: saline + alcohol) was 305 % of control. For the same molecule, the T/C (dose: 7.5 mg/kg/injection, schedule: Q01DX001 (iv), vehicle: saline + alcohol) was 164 % of control, the T/C (dose: 7.5 mg/kg/injection, schedule: Q04DX003 (ip), vehicle: saline) was 219 % of control and the T/C (dose: 8.0 mg/kg/injection, schedule: Q01DX001 (ip), vehicle: Klucel (hydroxypropylcellulose) (HPC)) was 171 % of control. For the same molecule, the T/C (dose: 8.0 mg/kg/injection, schedule: Q01DX001 (ip), vehicle: suspension in saline) was 166 % of control, the T/C (dose: 8.0 mg/kg/injection, schedule: Q01DX001 (ip), vehicle: water) was 200 % of control and the T/C (dose: 8.0 mg/kg/injection, schedule: Q01DX005 (ip), vehicle: saline + alcohol) was 254 % of control. For the same molecule, the T/C (dose: 8.0 mg/kg/injection, schedule: Q01DX009 (ip), vehicle: other) was 264 % of control and 370 % of control, the T/C (dose: 8.0 mg/kg/injection, schedule: Q01DX009 (ip), vehicle: saline with Tween-80) was 297 % of control and the T/C (dose: 9.0 mg/kg/injection, schedule: Q04DX003 (ip), vehicle: saline + alcohol) was 180 % of control. The T/C (dose: 10.0 mg/kg/injection, schedule: Q01DX005 (ip), vehicle: Klucel (hydroxypropylcellulose) (HPC)) was 123 % of control, the T/C (dose: 10.0 mg/kg/injection, schedule: Q01DX009 (ip), vehicle: Klucel (hydroxypropylcellulose) (HPC)) was 98 % of control and the T/C (dose: 10.0 mg/kg/injection, schedule: Q01DX009 (ip), vehicle: saline) was 240 % of control. For the same molecule, the T/C (dose: 10.0 mg/kg/injection, schedule: Q04DX003 (ip), vehicle: saline + alcohol) was 320 % of control, the T/C (dose: 10.0 mg/kg/injection, schedule: Q04DX003 (iv), vehicle: saline + alcohol) was 265 % of control and the T/C (dose: 10.8 mg/kg/injection, schedule: Q04DX002 (ip), vehicle: saline + alcohol) was 200 % of control and 206 % of control.
